# Experimental data reported in publication PMC12160547, “Identification of a Novel Small Molecule STING Agonist Reshaping the Immunomicroenvironment of Pancreatic Ductal Adenocarcinoma” (International Journal of Biological Sciences, 2025).
# Legend:
# [1] = cited from earlier work
# cGAS-STING pathway [2] = test system: cGAS-STING pathway; set-up: method as in PMID 31036082; conditions: cited from earlier work
# [3] = test system: subcutaneous pancreatic tumor; experiment: Subcutaneous pancreatic tumor model; assay type: in vivo, C57BL/6 mice; conditions: co-administered with D166
# Procedure: C57BL/6 mice were obtained from Phenotek (Shanghai) and randomly assigned to groups, with a minimum of six mice per group. For the subcutaneous tumor model, approximately 5 × 10^5 tumor cells were suspended in 150 μL PBS and injected into the left flank of the mice. Tumor size was measured every four days starting from day 7 post-injection. On days 9, 12, and 15, the mice were administered three different concentrations of the drug via peritumoral injection, while the Control group received only the solvent. The mice were euthanized on day 25, and tumors were excised, weighed, and further analyzed.
# (§1) Multiplex cytokine detection was performed using Luminex cytokine bead array technology provided by WayenBio, Shanghai. In the mouse tumor model, levels of multiple cytokines were simultaneously measured and normalized to tumor weight. For the quantification of specific cytokines, such as IL-6 and IFN-β, enzyme-linked immunosorbent assay (ELISA) kits from Abclonal were used. The assays were conducted according to the manufacturer's instructions.
# cGAS-STING pathway [4] = experiment: cGAS-STING pathway, IFN-β and ISG readout in pancreatic cancer organoids; assay type: cell-based, human; conditions: TBK1 inhibitor added to culture medium
# Procedure: Tumor tissues or cells were thoroughly lysed in RIPA buffer containing protease and phosphatase inhibitors. The lysates were then centrifuged to collect the supernatant. Proteins were separated by electrophoresis in MOPS buffer and subsequently transferred onto a PVDF membrane. After blocking, the membrane was sequentially incubated with the primary antibody, secondary antibody, and chemiluminescent substrate (ECL) for imaging.
# (§2) RNA from tumor tissues or cells was extracted using the SteadyPure Universal RNA Extraction Kit (Accurate Biology) and reverse transcribed into cDNA with the Evo M-MLV Reverse Transcription Kit (Accurate Biology). Relative RNA expression levels were quantified using 2X Universal SYBR Green Fast qPCR Mix (Abclonal), and the results were recorded on the qTOWER®3 84 Real-Time PCR system.
# as §1
# m-STING = biological target: T1, m-STING (Mus musculus, UniProt Q3TBT3); experiment: Raw-lucia reporter activation fold; assay type: cell-based
# T1 construct: Raw-lucia Fold (50 μM); endogenous in cells; host or cells: RAW-Lucia
# T1 sequence (Q3TBT3 1-378): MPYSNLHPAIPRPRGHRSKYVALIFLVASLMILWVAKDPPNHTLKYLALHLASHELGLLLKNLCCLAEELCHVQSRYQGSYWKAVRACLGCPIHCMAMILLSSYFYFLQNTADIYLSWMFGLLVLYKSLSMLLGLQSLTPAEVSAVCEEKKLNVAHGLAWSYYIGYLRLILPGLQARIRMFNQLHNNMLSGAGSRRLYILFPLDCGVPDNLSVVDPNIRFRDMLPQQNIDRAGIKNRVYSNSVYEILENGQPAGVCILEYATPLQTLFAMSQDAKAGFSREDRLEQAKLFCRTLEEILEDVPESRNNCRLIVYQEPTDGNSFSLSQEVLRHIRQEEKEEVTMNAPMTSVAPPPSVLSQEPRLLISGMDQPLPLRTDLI
# [5] = Pharmacokinetic parameters, i.v. and p.o.; assay type: in vivo
# h-STING = biological target: T2, h-STING (Homo sapiens, UniProt Q86WV6, G230A/R293Q/R71H); experiment: THP1-Dual reporter activation fold; assay type: cell-based
# T2 construct: THP1-Dual Fold (10 μM); endogenous in cells; host or cells: THP1-Dual
# STING signaling = experiment: Relative gene expression in RAW-Lucia cells (RT-qPCR); assay type: cell-based, mouse
# Procedure: as §2
# T2 sequence (Q86WV6 whole entry R71H/G230A/R293Q): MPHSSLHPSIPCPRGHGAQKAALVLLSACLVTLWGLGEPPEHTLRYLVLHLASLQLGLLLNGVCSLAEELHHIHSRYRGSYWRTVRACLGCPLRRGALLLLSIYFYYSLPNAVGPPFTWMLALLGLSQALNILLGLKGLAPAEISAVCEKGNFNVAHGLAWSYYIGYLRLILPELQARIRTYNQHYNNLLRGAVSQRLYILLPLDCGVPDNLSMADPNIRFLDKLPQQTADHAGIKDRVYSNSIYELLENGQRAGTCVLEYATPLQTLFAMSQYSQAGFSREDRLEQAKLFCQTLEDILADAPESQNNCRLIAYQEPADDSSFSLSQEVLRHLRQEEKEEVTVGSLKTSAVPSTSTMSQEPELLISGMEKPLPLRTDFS
structure (smiles),measurement,setting,value
Nc1ncnc2c1ncn2[C@@H]1O[C@@H]2COP(=O)([S-])O[C@@H]3[C@H](O)[C@@H](COP([O-])(=S)O[C@H]2[C@H]1O)O[C@H]3n1cnc2c(N)ncnc21.[Na+].[Na+] (stereo partly drawn) [ADU-S100],reason for termination in phase I clinical trials,[1],poor drug stability and systemic toxicity
"Cc1ccc2c(=O)c3cccc(CC(=O)O)c3oc2c1C [DMXAA, 5,6-Dimethylxanthenone-4-acetic acid]",species in which the cGAS-STING pathway is activated,cGAS-STING pathway [2],only in mice
Nc1nc2c(ncn2[C@@H]2O[C@@H]3CO[P@@](=O)(S)O[C@H]4[C@H](F)[C@H](n5cnc6c(N)ncnc65)O[C@@H]4CO[P@@](=O)(S)O[C@@H]2[C@@H]3F)c(=O)[nH]1 [MK-1454],efficacy in clinical study,[1]; single-agent treatment group,limited efficacy as a monotherapy
"O=C(NCCCNc1nc(Nc2cccc(CN3CCOCC3)c2)ncc1C1CC1)C1CCC1 [MRT67037, reference compound]",effect on the tumor-killing effect of D166,[3],counteracted the tumor-killing effect of D166
same,effect on D166-induced ISG activation in organoids,cGAS-STING pathway [4],rescued the D166-induced ISG activation
"COc1cc2cc(C(=O)CCC(=O)O)sc2cc1OC [MSA-2, reference compound]",Raw-lucia Fold (50 μM),m-STING,22.59 Fold
same,AUCInf,"[5]; i.v., average of three runs",1372 ng·h/mL
same,CL,"[5]; i.v., average of three runs",12.3 mL/min/kg
same,MRTInf,"[5]; i.v., average of three runs",15.6 min
same,T1/2,"[5]; i.v., average of three runs",39.6 min
same,Vz,"[5]; i.v., average of three runs",0.70 L/kg
same,AUCInf,"[5]; p.o., average of three runs",2852 ng·h/mL
same,MRTInf,"[5]; p.o., average of three runs",53.4 min
same,T1/2,"[5]; p.o., average of three runs",65.4 min
same,F,"[5]; p.o., oral bioavailability",69.3%
same,THP1-Dual Fold (10 μM),h-STING,43.09 Fold
same,Relative expression (Cxcl10/actin),STING signaling,179.40 ± 2.58
same,Relative expression (Ifnb/actin),STING signaling,125.70 ± 3.06
